Experimental data: patent US11992009B2, “Pesticide-containing soil disinfestation material without use of fumigant” (priority 2020, dated 2024)

Experiments:
[1] = Lab soil pesticide release testing; assay type: physicochemical; details: for Pesticide content of fumigant-free soil disinfestation materials after set time on Soil: HPLC, LoQ 0.25 g/ha
Description: 200 g of dry soil is placed in rectangular thin layer chromatography chamber of 27×7×26 cm with lid and 20 g water is added to the soil. A 58 cm^2 of a polymer composite material sample is placed on the humid soil and weight down by a glass plate with a contact pressure of […] to simulate similar contact conditions with the soil as in the field after application of the polymer composite material like a plastic mulch film. […]
After the set contact time with the soil the film sample is removed, moisture is dabbed off, loose dirt is brushed off and then the sample is dried at 60 C in an oven for 10 min. After drying the sample is cut into 100 small squares (each about 7.5 by 7.5 mm), placed in a small glass flask with 5 gram of Methanol and a magnetic stir bar. The flask is capped, stirred for 4 hours and the methanolic solution is then analyzed by HPLC. The difference between the initial and remaining amount of pesticide is released to the soil during the set time. The lowest concentration of analyte that can be determined with an acceptable repeatability and trueness by the method is 0.025 mg/m^2=0.25 g/ha Limit of quantitation (LoQ).

[2] = cited from earlier work
[3] = Example 1 material, 0 days (initial content)
[4] = Example 1 material, 7 days on humid soil
[5] = Example 1 material, 14 days on humid soil
[6] = Example 1 material, 21 days on humid soil
[7] = Example 2 material, 0 days (initial content)
[8] = Example 2 material, 7 days on humid soil
[9] = Example 2 material, 14 days on humid soil
[10] = Example 2 material, 21 days on humid soil
[11] = Example 5 material, 0 days (initial content)
[12] = Example 5 material, 7 days on humid soil
[13] = Example 5 material, 14 days on humid soil
[14] = Example 5 material, 21 days on humid soil
[15] = Example 4 material, 0 days (initial content)
[16] = Example 4 material, 7 days on humid soil
[17] = Example 4 material, 14 days on humid soil
[18] = Example 4 material, 21 days on humid soil
[19] = Example 3 material, 0 days (initial content)
[20] = Example 3 material, 7 days on humid soil
[21] = Example 3 material, 14 days on humid soil
[22] = Example 3 material, 21 days on humid soil

| Structure (SMILES) | Pesticide content of fumigant-free soil disinfestation materials after set time on Soil [1, 3] | Pesticide content of fumigant-free soil disinfestation materials after set time on Soil [1, 4] | Pesticide content of fumigant-free soil disinfestation materials after set time on Soil [1, 5] | Pesticide content of fumigant-free soil disinfestation materials after set time on Soil [1, 6] | Pesticide content of fumigant-free soil disinfestation materials after set time on Soil [1, 7] | Pesticide content of fumigant-free soil disinfestation materials after set time on Soil [1, 8] | Pesticide content of fumigant-free soil disinfestation materials after set time on Soil [1, 9] | Pesticide content of fumigant-free soil disinfestation materials after set time on Soil [1, 10] | Pesticide content of fumigant-free soil disinfestation materials after set time on Soil [1, 15] | Pesticide content of fumigant-free soil disinfestation materials after set time on Soil [1, 16] | Pesticide content of fumigant-free soil disinfestation materials after set time on Soil [1, 17] | Pesticide content of fumigant-free soil disinfestation materials after set time on Soil [1, 18] | Pesticide content of fumigant-free soil disinfestation materials after set time on Soil [1, 19] | Pesticide content of fumigant-free soil disinfestation materials after set time on Soil [1, 20] | Pesticide content of fumigant-free soil disinfestation materials after set time on Soil [1, 21] | Pesticide content of fumigant-free soil disinfestation materials after set time on Soil [1, 22] | other results |
| --- | --- | --- | --- | --- | --- | --- | --- | --- | --- | --- | --- | --- | --- | --- | --- | --- | --- |
| CO/C=C(/C(=O)OC)c1ccccc1Oc1cc(Oc2ccccc2C#N)ncn1 [Azoxystrobin] | 96 g/ha | 12 g/ha | 0 g/ha | 0 g/ha | 96 g/ha | 9 g/ha | 0 g/ha | 0 g/ha | – | – | – | – | – | – | – | – | Pesticide content of fumigant-free soil disinfestation materials after set time on Soil [1, 11]: 10 g/ha; Pesticide content of fumigant-free soil disinfestation materials after set time on Soil [1, 12]: 0 g/ha; Pesticide content of fumigant-free soil disinfestation materials after set time on Soil [1, 13]: 0 g/ha; Pesticide content of fumigant-free soil disinfestation materials after set time on Soil [1, 14]: 0 g/ha |
| N#Cc1c[nH]cc1-c1cccc2c1OC(F)(F)O2 [Fludioxonil] | 244 g/ha | 57 g/ha | 23 g/ha | 0 g/ha | 244 g/ha | 53 g/ha | 17 g/ha | 0 g/ha | – | – | – | – | – | – | – | – | Release from coated film in lab release test (FIG. 3) ([1]; at 7, 14 and 21 days, before planting): complete release; Water solubility [2]: hardly water soluble |
| O=S(=O)(CCC(F)=C(F)F)c1ncc(Cl)s1 [Fluensulfone] | – | – | – | – | – | – | – | – | 2807 g/ha | 0 g/ha | 0 g/ha | 0 g/ha | – | – | – | – | – |
| O=C(NCc1ncc(C(F)(F)F)cc1Cl)c1c(Cl)cccc1Cl [Fluopicolide] | – | – | – | – | – | – | – | – | 450 g/ha | 60 g/ha | 30 g/ha | 15 g/ha | – | – | – | – | – |
| O=C(NCCc1ncc(C(F)(F)F)cc1Cl)c1ccccc1C(F)(F)F [Fluopyram] | – | – | – | – | – | – | – | – | – | – | – | – | 91 g/ha | 0 g/ha | 0 g/ha | 0 g/ha | Pesticide content of fumigant-free soil disinfestation materials after set time on Soil [1, 11]: 350 g/ha; Pesticide content of fumigant-free soil disinfestation materials after set time on Soil [1, 12]: 14 g/ha; Pesticide content of fumigant-free soil disinfestation materials after set time on Soil [1, 13]: 0 g/ha; Pesticide content of fumigant-free soil disinfestation materials after set time on Soil [1, 14]: 0 g/ha |
| COC(=O)c1c(Cl)nn(C)c1S(=O)(=O)NC(=O)Nc1nc(OC)cc(OC)n1 [Halosulfuron-methyl] | 35 g/ha | 0 g/ha | 0 g/ha | 0 g/ha | 35 g/ha | 0 g/ha | 0 g/ha | 0 g/ha | – | – | – | – | 35 g/ha | 0 g/ha | 0 g/ha | 0 g/ha | Pesticide content of fumigant-free soil disinfestation materials after set time on Soil [1, 11]: 40 g/ha; Pesticide content of fumigant-free soil disinfestation materials after set time on Soil [1, 12]: 0 g/ha; Pesticide content of fumigant-free soil disinfestation materials after set time on Soil [1, 13]: 0 g/ha; Pesticide content of fumigant-free soil disinfestation materials after set time on Soil [1, 14]: 0 g/ha |
| COCC(=O)N(c1c(C)cccc1C)[C@H](C)C(=O)OC [Mefenoxam] | – | – | – | – | – | – | – | – | 281 g/ha | 19 g/ha | 0 g/ha | 0 g/ha | – | – | – | – | – |
| COCC(=O)N(c1c(C)cccc1C)C(C)C(=O)OC (stereo not shown) [Metalaxyl] | 936 g/ha | 12 g/ha | 1 g/ha | 0 g/ha | 936 g/ha | 15 g/ha | 0 g/ha | 0 g/ha | – | – | – | – | – | – | – | – | – |
| CSc1nnc(C(C)(C)C)c(=O)n1N [Metribuzin] | – | – | – | – | – | – | – | – | 375 g/ha | 0 g/ha | 0 g/ha | 0 g/ha | – | – | – | – | – |
| CNC(=O)O/N=C(\SC)C(=O)N(C)C [Oxamyl] | 1800 g/ha | 0 g/ha | 0 g/ha | 0 g/ha | 1800 g/ha | 0 g/ha | 0 g/ha | 0 g/ha | – | – | – | – | – | – | – | – | – |
| Cc1nn(-c2cc(NS(C)(=O)=O)c(Cl)cc2Cl)c(=O)n1C(F)F [Sulfentrazone] | – | – | – | – | – | – | – | – | – | – | – | – | 202 g/ha | 15 g/ha | 0 g/ha | 0 g/ha | – |
| CC(C)(C)C(O)(CCc1ccc(Cl)cc1)Cn1cncn1 (stereo not shown) [Tebuconazole] | – | – | – | – | – | – | – | – | – | – | – | – | 954 g/ha | 125 g/ha | 45 g/ha | 8 g/ha | – |
| CON=C(C(=O)OC)c1ccccc1CON=C(C)c1cccc(C(F)(F)F)c1 [Trifloxystrobin] | – | – | – | – | – | – | – | – | – | – | – | – | 238 g/ha | 65 g/ha | 35 g/ha | 3 g/ha | – |
| CCc1cccc(C)c1N(C(=O)CCl)[C@@H](C)COC [s-metolachlor] | – | – | – | – | – | – | – | – | 800 g/ha | 5 g/ha | 0 g/ha | 0 g/ha | – | – | – | – | – |
